Counter-ions that a name gives are not always drawn.
Columns and labels:
Assay type in all cases: biochemical
[1] = target: T1, recombinant human MAO-B (monoamine oxidase-B) (Homo sapiens, UniProt P27338); assay: Activity on recombinant human MAO-B, method similar to the VAP-1 assay; settings: substrate 1 mM benzylamine; read-out: Inhibitory Activity (IC50, nM) MAO-B
T1 construct: purchased Sigma-Aldrich
T1 sequence (P27338 1-520): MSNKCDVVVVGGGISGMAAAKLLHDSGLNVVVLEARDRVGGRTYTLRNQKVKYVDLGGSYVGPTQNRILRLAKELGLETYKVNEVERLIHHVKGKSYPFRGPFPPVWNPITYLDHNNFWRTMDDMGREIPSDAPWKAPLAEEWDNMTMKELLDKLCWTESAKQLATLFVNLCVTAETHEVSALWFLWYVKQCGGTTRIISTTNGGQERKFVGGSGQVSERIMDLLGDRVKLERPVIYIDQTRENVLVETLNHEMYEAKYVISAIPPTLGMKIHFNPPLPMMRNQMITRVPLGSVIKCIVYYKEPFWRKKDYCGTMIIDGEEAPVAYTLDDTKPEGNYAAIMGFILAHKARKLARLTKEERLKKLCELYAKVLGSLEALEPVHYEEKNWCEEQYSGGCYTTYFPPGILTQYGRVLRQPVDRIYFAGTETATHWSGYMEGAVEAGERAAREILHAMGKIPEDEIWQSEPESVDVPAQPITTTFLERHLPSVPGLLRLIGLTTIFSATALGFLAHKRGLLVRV
Outline: (§1)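 Amplex Red/HRP coupled read-out of H2O2 with 0.5 mM tyramine for MAO-A or 1 mM benzylamine for MAO-B, following a 30-min compound–enzyme preincubation at 37° C. IC50 from percent inhibition of signal rate relative to uninhibited control.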

[2] = target: T2, recombinant human MAO-A (monoamine oxidase-A) (Homo sapiens, UniProt P21397); assay: Activity on recombinant human MAO-A, method similar to the VAP-1 assay; settings: substrate 0.5 mM tyramine; read-out: Inhibitory Activity (IC50, nM) MAO-A
T2 construct: purchased Sigma-Aldrich
T2 sequence (P21397 1-527): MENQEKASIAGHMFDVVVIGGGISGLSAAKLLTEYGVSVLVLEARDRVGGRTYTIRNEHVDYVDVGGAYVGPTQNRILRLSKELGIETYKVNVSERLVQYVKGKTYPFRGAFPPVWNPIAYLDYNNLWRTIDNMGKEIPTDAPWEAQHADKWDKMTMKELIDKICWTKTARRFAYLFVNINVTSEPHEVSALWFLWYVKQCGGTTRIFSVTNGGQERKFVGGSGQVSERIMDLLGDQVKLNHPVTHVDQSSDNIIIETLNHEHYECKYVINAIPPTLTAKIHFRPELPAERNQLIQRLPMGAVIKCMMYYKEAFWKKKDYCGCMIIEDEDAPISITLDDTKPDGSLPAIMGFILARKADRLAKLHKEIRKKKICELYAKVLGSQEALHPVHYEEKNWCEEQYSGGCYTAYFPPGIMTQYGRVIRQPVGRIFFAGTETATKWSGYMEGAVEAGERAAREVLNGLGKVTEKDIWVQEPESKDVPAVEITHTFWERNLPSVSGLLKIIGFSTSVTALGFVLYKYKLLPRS
Outline: as §1

recombinant human VAP-1 = target: T3, recombinant human VAP-1 (Homo sapiens, UniProt Q16853); assay: Activity on recombinant human VAP-1, HRP-coupled Amplex Red hydrogen peroxide assay; settings: substrate 1 mM benzylamine; compound incubated with enzyme at 37° C. for 30 minutes; pH 7.4; read-out: Inhibitory Activity (IC50, nM) human VAP-1
T3 construct: purchased R&D systems
T3 sequence (Q16853 1-763): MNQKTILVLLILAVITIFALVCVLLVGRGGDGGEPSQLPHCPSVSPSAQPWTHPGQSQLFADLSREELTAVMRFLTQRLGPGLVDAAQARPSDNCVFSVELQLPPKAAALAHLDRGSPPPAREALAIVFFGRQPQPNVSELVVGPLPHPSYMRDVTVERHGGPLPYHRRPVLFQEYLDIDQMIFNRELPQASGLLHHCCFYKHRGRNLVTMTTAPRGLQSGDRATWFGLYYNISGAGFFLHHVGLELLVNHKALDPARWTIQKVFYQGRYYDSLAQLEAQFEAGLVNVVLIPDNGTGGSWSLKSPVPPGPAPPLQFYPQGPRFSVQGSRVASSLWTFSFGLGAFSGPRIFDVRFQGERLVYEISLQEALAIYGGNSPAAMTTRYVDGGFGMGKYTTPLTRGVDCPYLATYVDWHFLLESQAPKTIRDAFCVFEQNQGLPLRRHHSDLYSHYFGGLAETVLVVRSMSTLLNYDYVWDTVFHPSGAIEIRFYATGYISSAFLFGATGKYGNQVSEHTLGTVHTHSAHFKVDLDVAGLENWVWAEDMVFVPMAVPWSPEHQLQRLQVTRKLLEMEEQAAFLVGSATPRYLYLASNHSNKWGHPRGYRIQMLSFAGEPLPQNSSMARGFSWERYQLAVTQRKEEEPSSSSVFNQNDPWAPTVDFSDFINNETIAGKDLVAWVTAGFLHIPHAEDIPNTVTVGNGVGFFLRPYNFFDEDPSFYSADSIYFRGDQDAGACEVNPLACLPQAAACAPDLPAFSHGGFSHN
Outline: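 Dose-response IC50 determined from reduction in resorufin signal rate (544/590 nm, 1-2 h), with 30 min compound preincubation at 37 °C and 1 mM benzylamine as substrate.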

[3] = target: T4, recombinant human DAO (diamine oxidase) (Homo sapiens, UniProt P19801); assay: Activity on recombinant human DAO, method similar to the VAP-1 assay; settings: substrate 1 mM putrescine; read-out: Inhibitory Activity (IC50, nM) DAO
T4 construct: purchased R&D systems
T4 sequence (P19801 20-751): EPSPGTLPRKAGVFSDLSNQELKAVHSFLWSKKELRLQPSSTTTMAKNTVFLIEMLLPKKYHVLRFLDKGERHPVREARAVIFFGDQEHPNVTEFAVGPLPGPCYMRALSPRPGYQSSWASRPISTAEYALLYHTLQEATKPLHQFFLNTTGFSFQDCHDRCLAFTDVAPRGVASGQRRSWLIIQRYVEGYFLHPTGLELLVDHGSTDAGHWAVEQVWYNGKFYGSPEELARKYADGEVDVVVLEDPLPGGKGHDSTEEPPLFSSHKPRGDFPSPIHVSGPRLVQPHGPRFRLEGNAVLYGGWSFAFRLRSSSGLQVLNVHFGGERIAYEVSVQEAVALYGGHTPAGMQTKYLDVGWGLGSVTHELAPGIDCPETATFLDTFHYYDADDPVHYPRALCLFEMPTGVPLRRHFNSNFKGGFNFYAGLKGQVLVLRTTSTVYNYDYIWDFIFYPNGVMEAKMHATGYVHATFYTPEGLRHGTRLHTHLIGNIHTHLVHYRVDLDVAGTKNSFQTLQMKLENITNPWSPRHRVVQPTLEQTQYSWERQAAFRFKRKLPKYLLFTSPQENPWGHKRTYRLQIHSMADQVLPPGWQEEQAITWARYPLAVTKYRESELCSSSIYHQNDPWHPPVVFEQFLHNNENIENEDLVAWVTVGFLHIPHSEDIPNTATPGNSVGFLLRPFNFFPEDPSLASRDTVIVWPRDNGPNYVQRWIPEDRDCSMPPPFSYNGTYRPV
Outline: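 Inhibition of recombinant human diamine oxidase (DAO, R&D systems) was assessed by the same approach as the VAP-1 assay, using 1 mM putrescine as substrate. Hydrogen peroxide formed was detected through an HRP-coupled Amplex Red reaction yielding fluorescent resorufin, read at 544 nm excitation and 590 nm emission. IC50 values came from four-parameter logistic fitting in GraphPad Prism.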

IC50 [1] [nM] | IC50 [2] [nM] | IC50 (recombinant human VAP-1) [nM] | IC50 [3] [nM] | Structure (SMILES)
> 10000 | > 100000 | 2.4 | 1800 | NC/C(=C\F)Cn1ncn(Cc2ccc(-c3cnc(N)nc3)s2)c1=O [Example 167, 2-[(2E)-2-(aminomethyl)-3-fluoroprop-2-en-1-yl]-4-{[5-(2-aminopyrimidin-5-yl)thiophen-2-yl]methyl}-2,4-dihydro-3H-1,2,4-triazol-3-one]
< 10 | ≥ 100000 | 0.4 | 230 | NC/C(=C\F)Cn1ncn(Cc2ccc(-c3ccc4oc(=O)[nH]c4c3)s2)c1=O [Example 72, 5-[5-(1-[(2E)-2-(aminomethyl)-3-fluoroprop-2-en-1-yl]-5-oxo-1,5-dihydro-4H-1,2,4-triazol-4-ylmethyl)thiophen-2-yl]-1,3-benzooxazol-2(3H)-one hydrochloride]
1100 | 54000 | 0.4 | 230 | NC/C(=C\F)Cn1ncn(Cc2ccc(-c3cc4c(cc3F)OCC(=O)N4)s2)c1=O [Example 93, 6-[5-(1-[(2E)-2-(aminomethyl)-3-fluoroprop-2-en-1-yl]-5-oxo-1,5-dihydro-4H-1,2,4-triazol-4-ylmethyl)thiophen-2-yl]-7-fluoro-2H-1,4-benzoxazin-3(4H)-one hydrochloride]
13000 | > 100000 | 4.6 | 7400 | NC/C(=C\F)Cn1ncn(Cc2ccc(-c3ccc(-c4noc(=O)[nH]4)cc3)s2)c1=O [Example 144, 3-{4-[5-({1-[(2E)-2-(aminomethyl)-3-fluoroprop-2-en-1-yl]-5-oxo-1,5-dihydro-4H-1,2,4-triazol-4-yl}methyl)thiophen-2-yl]phenyl}-1,2,4-oxadiazol-5(4H)-one]
6400 | > 100000 | 0.5 | 180 | CN(C)c1ncc(-c2ccc(Cn3cnn(C/C(=C/F)CN)c3=O)s2)cn1 [Example 55, 2-[(2E)-2-(aminomethyl)-3-fluoroprop-2-en-1-yl]-4-(5-[2-(dimethylamino)pyrimidin-5-yl]thiophen-2-ylmethyl)-2,4-dihydro-3H-1,2,4-triazol-3-one hydrochloride]
73 | > 100000 | 0.67 | 120 | NC/C(=C\F)Cn1ncn(Cc2ccc(-c3ccc(-c4nnc[nH]4)cc3)s2)c1=O [Example 31, 2-[(2E)-2-(aminomethyl)-3-fluoroprop-2-en-1-yl]-4-(5-[4-(4H-1,2,4-triazol-3-yl)phenyl]thiophen-2-ylmethyl)-2,4-dihydro-3H-1,2,4-triazol-3-one]
1600 | > 100000 | 1.5 | 170 | CN(C)S(=O)(=O)c1ccc(-c2ccc(Cn3cnn(C/C(=C/F)CN)c3=O)s2)cc1 [Example 9, 4-[5-(1-[(2E)-2-(aminomethyl)-3-fluoroprop-2-en-1-yl]-5-oxo-1,5-dihydro-4H-1,2,4-triazol-4-ylmethyl)thiophen-2-yl]-N,N-dimethylbenzenesulfonamide hydrochloride]
650 | 36000 | 0.5 | 280 | Cc1cc(-c2ccc(Cn3cnn(C/C(=C/F)CN)c3=O)s2)cc2c(C(F)(F)F)cc(=O)[nH]c12 [Example 83, 6-[5-[[1-[(E)-2-(aminomethyl)-3-fluoro-allyl]-5-oxo-1,2,4-triazol-4-yl]methyl]-2-thienyl]-8-methyl-4-(trifluoromethyl)-1H-quinolin-2-one]
300 | 7100 | 2 | 2100 | NC/C(=C\F)Cn1ncn(Cc2ccc(C#Cc3ccc4c(c3)NCCO4)s2)c1=O [Example 134, 2-[(E)-2-(aminomethyl)-3-fluoro-allyl]-4-[[5-[2-(3,4-dihydro-2H-1,4-benzoxazin-6-yl)ethynyl]-2-thienyl]methyl]-1,2,4-triazol-3-one]
160 | > 100000 | 0.8 | 340 | NC/C(=C\F)Cn1ncn(Cc2ccc(-c3cccc4ncccc34)s2)c1=O [Example 113, 2-[(2E)-2-(aminomethyl)-3-fluoroprop-2-en-1-yl]-4-[5-(quinolin-5-yl)thiophen-2-yl]methyl-2,4-dihydro-3H-1,2,4-triazol-3-one hydrochloride]
4700 | > 100000 | 2.3 | 230 | CCS(=O)(=O)c1ccc(-c2ccc(Cn3cnn(C/C(=C/F)CN)c3=O)s2)cc1 [Example 196, 2-[(2E)-2-(aminomethyl)-3-fluoroprop-2-en-1-yl]-4-({5-[4-(ethylsulfonyl)phenyl]thiophen-2-yl}methyl)-2,4-dihydro-3H-1,2,4-triazol-3-one]
430 | > 100000 | 0.18 | 68 | NC/C(=C\F)Cn1ncn(Cc2ccc(-c3cc4c(c(C(F)(F)F)c3)NC(=O)CC4)s2)c1=O [Example 81, 6-[5-[[1-[(E)-2-(aminomethyl)-3-fluoro-allyl]-5-oxo-1,2,4-triazol-4-yl]methyl]-2-thienyl]-8-(trifluoromethyl)-3,4-dihydro-1H-quinolin-2-one]

Reference: patent US11780830B2, “Triazolone derivatives or salts thereof and pharmaceutical compositions comprising the same” (YUHAN CORPORATION, priority 2018, dated 2023)
